According to patent publication US7259239B2, “Lipopolysaccharide α-2,3 sialyltransferase of campylobacter jejuni and its uses” (priority 1998, dated 2007):

Assays:
[1] = molecular target: C. jejuni α-2,3-sialyltransferase (CST-06, MBP-fusion protein of the full length sialyltransferase) (Campylobacter jejuni, UniProt Q9RGF1); experiment: Acceptor specificity and kinetics on p-nitrophenyl-glycosides with malE-cst (CST-06); type: biochemical; conditions: p-NP-glycoside acceptor at 2.0 mM; for Relative Activity (CST-06): acceptor with lowest activity given the value 1
Procedure: (§1) Kinetic analysis of acceptors was performed at 37° C. with p-NP-glycosides at concentrations of 0.1 to 10 mM, with CMP-Neu5Ac at 1 mM. Kinetic analysis of the donor CMP-Neu5Ac was performed at a concentration of 20 μM to 1000 μM with p-NP-lactose at 5 mM. Care was taken to ensure that the level of acceptor conversion was between about 5-10% for acceptor kinetic assays.
(§2) For donor kinetics the amount of conversion of CMP-Neu5Ac was calculated from the amount of product formed compared to an internal standard of 10 μM p-NP-glucose added after the reaction. This peak was well resolved from the acceptor and product peaks. The reactions with p-NP-glycosides were stopped by addition of an equal volume of 2% SDS, 20 mM EDTA and heated to 75° C. for 3 minutes and then diluted 1:1 (or maximally 1:10 for 10 mM concentrations) with water. The samples were then analyzed by CE using a diode array detector scanning between 260 and 300 nm, with the peaks at detected at 290 nm. The peaks from the electropherograms were analyzed using manual peak integration with the P/ACE Station™ software. For rapid detection of enzyme activity, samples from the transferase reaction mixtures were examined by thin layer chromatography on silica-60 TLC plates (E. Merck) as described in Gilbert et al. (1996) supra.
(§3) The acceptor specificity of the C. jejuni α-2,3-sialyltransferase was examined with a panel of p-NP-glycosides having both β1→4 and β1→3 linkages. The kinetic data for all of the acceptors was collected using the MBP-fusion protein of the full length sialyltransferase. The data for the acceptor specificity were collected first by assaying the enzyme at an acceptor concentration of 2.0 mM. The acceptor with the lowest activity was given the value of 1 for the comparison of activity. These reaction conditions were used in a comparison (Table 3) of the C. jejuni enzyme with the Lst protein from N. meningitidis (Gilbert et al. (1996) J. Biol. Chem. 271: 28271-28276). The N. meningitidis Lst protein was also a MBP protein fusion which was soluble and purified by affinity chromatography.

[2] = molecular target: T1, Lst protein from N. meningitidis (NST-33, MBP protein fusion) (Neisseria meningitidis serogroup B, UniProt P72097); type: biochemical; conditions: p-NP-glycoside acceptor at 2.0 mM; for Relative Activity (NST-33): acceptor with lowest activity given the value 1
T1 construct: made in house
Procedure: as §2, §3

[3] = system: CC(=O)N[C@H]1[C@@H](Oc2ccc([N+](=O)[O-])cc2)O[C@H](CO)[C@H](O)[C@@H]1O[C@@H]1O[C@H](CO)[C@H](O)[C@H](O)[C@H]1O; experiment: Acceptor specificity and kinetics on p-nitrophenyl-glycosides with malE-cst (CST-06); type: biochemical, Campylobacter jejuni; conditions: other: 37° C., p-NP-glycosides 0.1 to 10 mM, CMP-Neu5Ac 1 mM
Procedure: as §1, §2, §3

[4] = system: CC(=O)N[C@H]1[C@H](Oc2ccc([N+](=O)[O-])cc2)O[C@H](CO)[C@@H](O[C@@H]2O[C@H](CO)[C@H](O)[C@H](O)[C@H]2O)[C@@H]1O; experiment: as above; type: biochemical, Campylobacter jejuni; conditions: other: 37° C., p-NP-glycosides 0.1 to 10 mM, CMP-Neu5Ac 1 mM
Procedure: as §1, §2, §3

[5] = system: [H][C@@]1(O[C@H]2[C@H](O)[C@@H](O)[C@H](Oc3ccc([N+](=O)[O-])cc3)O[C@@H]2CO)O[C@H](CO)[C@H](O)[C@H](O)[C@H]1O; experiment: as above; type: biochemical, Campylobacter jejuni; conditions: other: 37° C., p-NP-glycosides 0.1 to 10 mM, CMP-Neu5Ac 1 mM
Procedure: as §1, §2, §3

T1 sequence (P72097 whole entry, the tested form may be a part): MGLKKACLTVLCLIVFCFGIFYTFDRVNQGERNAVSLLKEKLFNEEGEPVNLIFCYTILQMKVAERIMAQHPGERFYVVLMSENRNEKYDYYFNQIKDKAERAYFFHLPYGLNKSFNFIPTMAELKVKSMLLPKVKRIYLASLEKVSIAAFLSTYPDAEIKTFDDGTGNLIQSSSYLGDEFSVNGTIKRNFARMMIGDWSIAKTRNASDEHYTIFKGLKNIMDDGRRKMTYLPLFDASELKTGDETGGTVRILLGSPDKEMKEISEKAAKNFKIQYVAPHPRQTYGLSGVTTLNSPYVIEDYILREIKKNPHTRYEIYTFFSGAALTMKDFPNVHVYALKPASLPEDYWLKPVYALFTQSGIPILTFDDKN
Chain of C. jejuni α-2,3-sialyltransferase (CST-06, MBP-fusion protein of the full length sialyltransferase) (Q9RGF1 entry or part of it): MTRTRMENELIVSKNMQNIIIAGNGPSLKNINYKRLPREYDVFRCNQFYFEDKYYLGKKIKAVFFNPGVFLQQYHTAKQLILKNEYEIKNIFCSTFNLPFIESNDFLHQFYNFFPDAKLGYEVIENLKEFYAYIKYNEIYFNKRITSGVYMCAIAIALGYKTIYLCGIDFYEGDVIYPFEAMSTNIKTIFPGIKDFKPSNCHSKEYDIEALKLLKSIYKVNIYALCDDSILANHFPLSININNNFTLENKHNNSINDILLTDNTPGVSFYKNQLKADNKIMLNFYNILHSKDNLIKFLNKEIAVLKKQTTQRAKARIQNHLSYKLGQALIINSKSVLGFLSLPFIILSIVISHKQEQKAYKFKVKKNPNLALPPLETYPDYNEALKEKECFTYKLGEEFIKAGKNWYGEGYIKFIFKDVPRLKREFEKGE

O=[N+]([O-])c1ccc(OC2OC(CO)C(OC3OC(CO)C(OC4OC(CO)C(O)C(O)C4O)C(O)C3O)C(O)C2O)cc1 (stereo not drawn) [Gal-α-1,4-Gal-β-Glc]
Relative Activity (CST-06) [1]: 0
Relative Activity (NST-33) [2]: 5.6

O=[N+]([O-])c1ccc(O[C@@H]2O[C@H](CO)[C@@H](O[C@@H]3O[C@H](CO)[C@H](O)[C@H](O)[C@H]3O)[C@H](O)[C@H]2O)cc1 [Gal-β-1,4-Glc]
Enzyme activity mU/mg (CST-06) [1]: mU/mg = 420
Relative Activity (CST-06) [1]: 4.9
Enzyme activity mU/mg (NST-33) [2]: mU/mg = 30
Relative Activity (NST-33) [2]: 7.8

O=[N+]([O-])c1ccc(O[C@@H]2O[C@H](CO)[C@H](O)[C@H](O)[C@H]2O)cc1 [Gal-β]
Relative Activity (CST-06) [1]: 1
Relative Activity (NST-33) [2]: 1.2

C. jejuni α-2,3-sialyltransferase (CST-06, MBP-fusion protein of the full length sialyltransferase) (Campylobacter jejuni)
Km [3]: 2.7 mM ± 0.1 mM
Km [4]: 0.8 mM ± 0.2 mM
Km [5]: 1.3 mM ± 0.12 mM
